The record followed here is publication PMC10541198, “Specific quinone reductase 2 inhibitors reduce metabolic burden and reverse Alzheimer’s disease phenotype in mice” (The Journal of Clinical Investigation, 2023).

For orientation: IC50 means the concentration needed to halve the response being measured. Low values mean greater potency in that assay, high ones weaker potency in that assay.

Structures are written as SMILES.

In this assay the target is T1, QR2 (Homo sapiens, UniProt P16083).
T1 construct: purchased Sigma-Aldrich
T1 sequence (P16083 1-231): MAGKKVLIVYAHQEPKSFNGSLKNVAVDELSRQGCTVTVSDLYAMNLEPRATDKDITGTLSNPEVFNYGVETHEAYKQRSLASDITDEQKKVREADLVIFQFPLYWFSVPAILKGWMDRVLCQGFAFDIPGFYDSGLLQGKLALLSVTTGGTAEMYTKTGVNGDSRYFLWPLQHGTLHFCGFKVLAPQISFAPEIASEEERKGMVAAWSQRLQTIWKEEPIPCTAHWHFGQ
As to the kind of experiment: QR2 activity assay, BNAH fluorescence (standard/primary). The note with it: for IC50: Figure 2D, readout not stated. Format: biochemical. The source says:
A drug discovery campaign strategy was initiated to screen compounds for QR2-specific, cell-free inhibition and in vitro activity, followed by SAR optimization (Figure 2A) to achieve highly specific and potent QR2 inhibitor synthesis. In order to establish a varied and chemically amenable starting point, we developed a high-throughput QR2 assay (Supplemental Methods) that we screened against a library with approximately 200,000 compounds. […] Compounds that replicated the initial hit result were then assayed similarly against QR1 to evaluate compound specificity (Figure 2B). From the HTS, a chemically tractable and attractive series of compounds containing a sulfone flanked by an amine and a heterocycle were identified and selected for SAR development (Figure 2C, Supplemental Methods, Supplemental Table 1, and Supplemental Table 2). […]
High Throughput Screen (H TS)
The enzymatic activity of QR 2 (10 nM) was measur ed using menadione (both Sigm a -Aldrich) as subst r at e and dihydro- benzylnicotinamide (BNAH; Tocris) as co-substrate(62). The reaction was performed in 50 mM Tri s HCl, 150 mM NaCl 0.01%Tween- 20 pH=8.5 (Sigma-Aldrich) at r oom tem per atur e. Briefl y, 3 µL of menadione alone (200 µM) or a mixture of menadione and QR2 (200 µM of […]
menadione and 10 nM of QR2) were dispensed in 1536-well black Nunc plates (Thermo-Fisher) using aMultidrop™ Combi Reagent Dispenser (Thermo-Fisher) and pre-incubated with compounds for 10min. BNAH (200µM) was t hen added (3 µL) to the reaction using a BioNex Solutions BNX1536plate washer and the plates were incubated for another 10 min. Fluorescence intensity was followed in a PHERAstar FS multi-mode plate reader (BMG Labtech) us i ng an optic module with excitation at 360 nm and emission at 470 nm. The initial HTS includedapproximately 200,000 compounds at a single concentrationof 5 µM. The chemical libraries used were Selleck Chemicals Bioactives, the Drug-like set from Enamine, HitFinder collection from Maybridge, Spectrum Collection from Microsource, Lopa c from Sigma -Aldrich and the diversity set s from Chem Div and Che m Br idge .
Initial ‘‘hit’’ compounds were defined as causing >30% reduction of enzyme activity. Compounds suspected to be fluorescent were re -assayed in an absorbance assay at 350 nm using the same reaction but in a higher volume (100 µL), in a transparent plate (Greiner Bio- One). ‘‘Hit’’ compounds resulting from both the fluorescence and absorbance assay wer e t ested in a concentration- response, and IC50 values were de t er mi ne d. In parallel, the same concentration response methodologywas appliedin a selectivity assay where QR2 enzymewas replaced byQR1 […]
Chromatography System, with UV/Vis detector 2489, using XBridge® Prep C18 10 μm 10x250 mm […]
was monitored by Wat er s UPLC-MS system: Acquity UPLC® H class with PDA detector, and using […]

The molecule `Cc1ccc(-c2cn3cccc(C)c3n2)cc1S(=O)(=O)N1CCC(C)CC1` [YB-800] registered an IC50 of 30 nM. With `Cc1ccc(-c2cn3cccc(C)c3n2)cc1S(=O)(=O)N1CCNCC1` [YB-537], the “binding affinity to QR2 than to QR1” value was “more than 6,000 fold”, the “specificity to QR2 compared with QR1” value is listed as “more than 6,000 times” and the IC50 is 3 nM. As to `Cc1ccc(-c2cn3cccc(C)c3n2)cc1S(=O)(=O)N1CCCC1` [YB-808], the midpoint of inhibition, the IC50, lay at 10 nM.
